{"source": "patent US11136546B2", "about": "“Recombinant Escherichia coli and application of the same” (Zhengzhou Zhonghao Biological Technology Co., Ltd., priority 2018, dated 2021)", "origin": "cited, not measured here", "key": {"pathogenic E. coli": {"tested_on": "pathogenic E. coli", "conditions": "in vitro bacteriostatic tests; a variety of pathogenic E. coli"}, "Salmonella": {"tested_on": "Salmonella", "conditions": "in vitro bacteriostatic tests"}}, "note": "Where no end group is shown, it is not given here.", "data": [{"substance": "Microcin J25: antibacterial lasso peptide consisting of 21 amino acids (SEQ ID No.: 4), obtained by fermentation of genetically engineered Escherichia coli (GGAGHVPEYFVGIGTPISFYG; also: lasso cyclisation, places not given here)", "values": [{"measurement": "killing of pathogenic E. coli", "setting": "pathogenic E. coli", "result": "able to kill"}, {"measurement": "killing of Salmonella", "setting": "Salmonella", "result": "able to kill"}]}]}
